Experimental data as given in article PMC9497135, “Structure-Based Study to Overcome Cross-Reactivity of Novel Androgen Receptor Inhibitors” (Cells, 2022).
Residue numbers refer to the chain shown, from its start.

Assays:
[1] = tested on: prostate-specific antigen (PSA) expression in LNCaP cells; experiment: PSA assay in LNCaP cells; format: cell-based; settings: Homo sapiens, 72 h, with R1881, 3 days
Description: The PSA assay was performed in parallel with the previous reporter eGFP assay and using the same plates. After 3 days incubation of LNCAP cells with R1881 and the test compound, 150 µL of the media was taken from each well and added to 150 µL of PBS. PSA levels were then evaluated using the Cobas e 411 analyzer instrument (Roche Diagnostics) according to the manufacturer’s instructions.

[2] = molecular target: T1, wild type AR LBD (Homo sapiens, UniProt P10275); experiment: Biolayer interferometry (BLI), wild type LBD; format: binding
T1 construct: made in house; host or cells: E. coli BL21-DE3 co-transformed with pBirACm
T1 sequence (P10275 669-900 limits assumed): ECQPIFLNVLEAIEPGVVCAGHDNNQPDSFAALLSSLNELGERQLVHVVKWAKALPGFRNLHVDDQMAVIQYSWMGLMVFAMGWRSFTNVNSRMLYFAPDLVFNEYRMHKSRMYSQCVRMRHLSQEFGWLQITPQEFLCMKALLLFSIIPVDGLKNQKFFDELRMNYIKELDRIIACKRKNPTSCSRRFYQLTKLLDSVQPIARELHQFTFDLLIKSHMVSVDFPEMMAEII
Description: (§1) The direct reversible interaction between small molecules and the AR was quantified by BLI using OctetRED (ForteBio, Fremont, CA, USA). The wild type and T878A-LDB in fusion with an N-terminal (His)6-avidin ([…]) tag were expressed in E. coli BL21-DE3 cells co-transformed with pBirACm plasmid (Avidity), which expresses a biotin ligase leading to the biotynilation of the avidin tag on the LBD. Cells were grown in LB media at 37 °C to an OD600nm = 0.5 and then induced with 0.5 mM isopropyl-β-D-thiogalactoside. A measure of 20 µM of dihydrotestosterone (DHT) and 0.15 mM biotin were added and the cells were incubated at 16 °C for 18 to 20 h. Cells were then resuspended and lysed in buffer containing 500 mM Li2SO4, 50mM HEPES pH7.2, 10% Glycerol, 0.1% Octyl-beta-Glucoside, 20 µM of DHT, 5 mM β-mercaptoethanol, 10 mM imidazole and 0.1 mM phenylmethanesulfonyl fluoride. […] After an overnight dialysis against 150 mM Li2SO4, 50 mM HEPES pH7.2, 10% Glycerol, 0.1% Octyl-beta-Glucoside, 20 µM of DHT and 0.2 mM tris(2-carboxyethyl)phosphine, purified proteins at 50 µg/mL were bound to the super-streptavidin sensors overnight at 4 °C. The assay was performed at 20 °C in the dialysis buffer supplemented with 5% dimethyl sulfoxide (DMSO) which was also used as our reference measurement.

[3] = molecular target: T2, T878A AR LBD (Homo sapiens, UniProt P10275, T878A); experiment: Biolayer interferometry (BLI), T878A LBD; format: binding
T2 construct: made in house; host or cells: E. coli BL21-DE3 co-transformed with pBirACm
T2 sequence (P10275 669-900 T878A limits assumed): T1 sequence (P10275 669-900 limits assumed) with T210A
Description: as §1

[4] = molecular target: T3, AR (LNCaP cells, which carry the T878A AR mutation) (Homo sapiens, UniProt P10275, T878A); experiment: eGFP cellular AR transcription assay in LNCaP cells (LN-ARR2PB-eGFP); format: cell-based; settings: LNCaP, with R1881, high concentrations
T3 construct: LNCaP cells, which carry the T878A AR mutation; endogenous in cells; host or cells: LNCaP (LN-ARR2PB-eGFP)
T3 sequence (P10275 1-920 T878A): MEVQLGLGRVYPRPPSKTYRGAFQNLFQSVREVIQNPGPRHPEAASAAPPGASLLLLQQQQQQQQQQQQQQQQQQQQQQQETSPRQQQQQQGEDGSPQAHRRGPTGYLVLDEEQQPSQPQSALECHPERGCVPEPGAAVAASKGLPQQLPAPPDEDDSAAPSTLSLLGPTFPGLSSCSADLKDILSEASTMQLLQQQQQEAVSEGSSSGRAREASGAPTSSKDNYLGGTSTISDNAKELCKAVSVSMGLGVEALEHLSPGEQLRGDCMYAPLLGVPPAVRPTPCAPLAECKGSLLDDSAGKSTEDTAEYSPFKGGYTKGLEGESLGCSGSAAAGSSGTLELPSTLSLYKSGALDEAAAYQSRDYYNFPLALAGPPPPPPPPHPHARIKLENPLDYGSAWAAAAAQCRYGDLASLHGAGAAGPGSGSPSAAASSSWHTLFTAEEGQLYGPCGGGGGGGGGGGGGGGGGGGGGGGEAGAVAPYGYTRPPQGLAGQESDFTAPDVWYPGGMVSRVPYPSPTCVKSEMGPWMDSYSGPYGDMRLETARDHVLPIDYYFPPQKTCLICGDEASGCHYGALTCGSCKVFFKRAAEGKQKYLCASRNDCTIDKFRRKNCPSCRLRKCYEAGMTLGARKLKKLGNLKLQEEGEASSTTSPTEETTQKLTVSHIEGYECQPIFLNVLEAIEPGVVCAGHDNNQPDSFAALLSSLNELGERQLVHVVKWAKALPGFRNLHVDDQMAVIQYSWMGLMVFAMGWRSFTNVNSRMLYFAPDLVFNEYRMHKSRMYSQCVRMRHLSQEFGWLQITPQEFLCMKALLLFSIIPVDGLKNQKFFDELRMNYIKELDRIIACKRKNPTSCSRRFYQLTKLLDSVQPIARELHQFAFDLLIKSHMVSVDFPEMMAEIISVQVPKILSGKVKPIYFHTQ
Description: AR transcriptional activity was assayed as previously described. Briefly, LNCaP human prostate cancer cells (LN-ARR2PB-eGFP), stably transfected with eGFP reporter driven by an androgen responsive probasin-derived promoter (ARR2PB), were grown in phenol red free RPMI 1640 media supplemented with 5% charcoal stripped serum (CSS). After 5 days, the cells were plated into a 96-well plate (35,000 cells/well) with 0.1 nM of the synthetic androgen R1881 and increasing concentrations (0−100 μM) of test compounds. Fluorescence (excitation 485 nm, emission 535 nm) was measured after 3 days of incubation with the compounds.

[5] = tested on: endogenous wild type AR in R1-AD1 cells; experiment: AR transcriptional activity in R1-AD1 cells; format: cell-based, human; settings: 0.1 nM R1881

COc1c(F)cccc1-c1csc(N2CCOCC2)n1 [VPC14368, 4-(4-(3-fluoro-2-methoxyphenyl)thiazol-2-yl)morpholine]
IC50 [1]: 130 nM
Direct binding to wild-type LBD by BLI [2]: confirmed at high concentrations and in a concentration-dependent manner
Concentration at which binding is seen (BLI) ([2]; Figure 2, 50-300 µM tested): above 100 µM
Direct binding to T878A LBD by BLI [3]: confirmed at high concentrations and in a concentration-dependent manner
Concentration at which binding is seen (BLI) ([3]; Figure 2, 50-300 µM tested): above 100 µM
Partial agonistic effect in eGFP assay [4]: partial agonistic effect
Agonistic effect in R1-AD1 cells [5]: not observed
